Experimental data: PubChem BioAssay (NCI)
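Growth conditions: 96-well plates. Treatment: test compound, 48 hours, 5 concentrations. Analysis: linear interpolation between bracketing concentrations; unreached endpoints set to highest concentration. GI50: concentration for 50% inhibition of growth. TGI: total growth inhibition.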

Columns and labels:
Assay in all cases: DTP human tumour cell line panel, 48 h
OVCAR-3 ovarian = tested on: OVCAR-3 ovarian
UACC-62 melanoma = tested on: UACC-62 melanoma
UO-31 renal = tested on: UO-31 renal
DU-145 prostate = tested on: DU-145 prostate
SN12C renal = tested on: SN12C renal
RPMI-8226 leukemia = tested on: RPMI-8226 leukemia
HT29 colon = tested on: HT29 colon
UACC-257 melanoma = tested on: UACC-257 melanoma
SF-295 CNS = tested on: SF-295 CNS
ACHN renal = tested on: ACHN renal

SMILES | GI50 (OVCAR-3 ovarian) [µM] | TGI (OVCAR-3 ovarian) [µM] | GI50 (UACC-62 melanoma) [µM] | TGI (UACC-62 melanoma) [µM] | GI50 (UO-31 renal) [µM] | TGI (UO-31 renal) [µM] | GI50 (DU-145 prostate) [µM] | TGI (DU-145 prostate) [µM] | GI50 (SN12C renal) [µM] | TGI (SN12C renal) [µM] | GI50 (RPMI-8226 leukemia) [µM] | TGI (RPMI-8226 leukemia) [µM] | GI50 (HT29 colon) [µM] | TGI (HT29 colon) [µM] | GI50 (UACC-257 melanoma) [µM] | TGI (UACC-257 melanoma) [µM] | GI50 (SF-295 CNS) [µM] | TGI (SF-295 CNS) [µM] | GI50 (ACHN renal) [µM] | TGI (ACHN renal) [µM]
Cc1ccc(O)cc1Nc1ccnc2cc(-c3ccccn3)ccc12 | 2.14 | 6.36 | 3.45 | 7.34 | 0.246 | 3.77 | 1.38 | 8.28 | 2.46 | 7.51 | 4.25 | 9.88 | 3.9 | 7.81 | 3.09 | 6.25 | 3.12 | 6.89 | 0.611 | 5.16
Cc1nn2c(-c3nc4cc(Cl)c(Cl)cc4[nH]3)c(-c3ccc(F)cc3)nc2s1 | 3.26 | 11.1 | 3.49 | > 46.3 | 1.64 | 3.93 | 5.19 | > 100 | 7.92 | > 100 | 2.44 | > 100 | 1.91 | > 100 | 8.16 | > 100 | 4.92 | > 42.8 | 1.7 | 5.25
CCc1c(C#N)c(SC(C(N)=O)c2ccccc2)nc(N2CCC(N)CC2)c1C#N (stereo unspecified) | 14.5 | 28.2 | 15 | 28.4 | > 100 | > 100 | 16.9 | 31.1 | 13.1 | 26 | 13.7 | 34.4 | 14.3 | 30.7 | 14.3 | 29.3 | 14.8 | 28.7 | 18.1 | 38.8
Oc1ccc(-c2[nH]c3ccccc3c2-c2nc3ccccc3o2)cc1 | 3.05 | 9.8 | 3.1 | 15 | 0.893 | 13.9 | 5.69 | 18.3 | 4.88 | 18.5 | 14.3 | 52.3 | 3.65 | 11.5 | 4.59 | 18.3 | 4.48 | 19.4 | 3.58 | 14.9
OC1CSCCSCCCSCCSC1 |  | > 100 |  | > 100 |  | > 100 |  | > 100 |  | > 100 |  | > 100 |  | > 100 |  | > 100 |  | > 100 |  | > 100
O=C1C2C(C(=O)N1CC[Se][Se]CCN1C(=O)C3C(C1=O)[C@H]1C=C[C@@H]3C1)[C@H]1C=C[C@@H]2C1 (stereo partly specified) | 0.852 | 2.94 | 1.37 | 3.24 | 0.247 | 0.964 | 0.555 | 2.86 |  |  | 2.19 | 5.17 | 0.355 | 12.7 | 0.452 | 3.14 | 1.11 | 2.42 | 0.408 | 2.21
CCN(CCNc1ccc(C)c2sc3cc(Cl)ccc3c(=O)c12)CC(C)(C)O | 18.6 | 62.9 | 1.67 | 3.37 | 1.3 | 3.53 | 13.1 | 40.6 | 20.8 | > 100 | 3.86 | 22.2 | 2 | 4.86 | 2.03 | 4.37 | 1.86 | 4.34 | 12.7 | 65
Nc1c(C(=O)Nc2ccccn2)sc2nc3c(cc12)CCCCCC3 | 0.626 | 2.47 | 0.376 | 10.3 | 4.56 | 22.2 | 1.18 | 5.77 | 3.17 | 37.3 | 0.915 | 30 | 0.36 | 5.67 | 7.88 | 30.7 | 0.426 | 5.43 | 2.41 | 10.9
CCN(CC)Cc1cc(Nc2cc(C(F)(F)F)c(C#N)c3nc4ccccc4n23)ccc1O | 1.83 | 10.4 | 1.22 | 3.96 | 1.12 | 3.1 | 2.78 | 15.7 |  |  | 0.812 | 4.96 | 2.5 | 12.2 | 1.93 | 7.86 | 1.2 | 3.81 | 2.24 | 10.3
O=C(Nc1nc2c(s1)CCc1c-2c(Br)n(Cc2ccccc2)c1Br)c1ccccc1 | 4.24 | 17.3 | 4.66 | > 100 | 3.19 | 39.9 | 5.19 | > 100 | 10 | > 100 | 11.4 | > 100 | 4.71 | > 100 | 8.53 | > 100 | 3.01 | 13.2 | 1.88 | 7.35
CCOC(=O)C1=C(C)N(Cc2ccc(Cl)cc2Cl)[C@]2(C#N)C(O)=C(Cl)C(Cl)=C(O)[C@]12C#N | 46.7 | > 100 |  |  | 92 | > 100 | 16.7 | 38.7 | 73.9 | > 100 | 21.2 | 47.3 | > 100 | > 100 | > 100 | > 100 | > 100 | > 100 | > 100 | > 100
Cc1cc(-c2ccco2)cc(C)c1/C=C/c1cncc(-c2nn[nH]n2)c1 | > 25 | > 25 | > 25 | > 25 | > 25 | > 25 | > 25 | > 25 | > 25 | > 25 | > 25 | > 25 | > 25 | > 25 | > 25 | > 25 | > 25 | > 25 | > 25 | > 25
COc1cc(OC)c(/C=C/C(=O)c2c(N)cc(OC)cc2OC)c(OC)c1 | 0.28 | 1.1 | 0.379 | > 100 | 1.36 | > 100 | 0.608 | > 100 | 0.719 | > 100 | 0.815 | > 100 | 3.3 | 14.6 |  |  | 0.397 |  | 0.722 | > 100
